Several values for one entry are separate records, joined by “and”; a condition that tells them apart may be missing. Equal entries are not always repeated. Where two headings read alike, the source gives them in different places. Marks after values point to notes of the source that are not given here. One block for each molecule: values may come before it.
Assays:
[1] = molecular target: SmPDE4A_CD (Schistosoma mansoni, UniProt A0ACM8RGL1); assay: biochemical; conditions: for inhibition at 10 µM: read-out: SmPDE4A_CD Inhibition at 10 µM (%)
Description: (§1) Enzyme velocity was plotted against substrate concentration, and Km values were determined using GraphPad Prism software version 8, analyzing the Michaelis–Menten kinetics of the enzyme.
(§2) Inhibitors were initially tested at 10 µM (triplicate measurements/assay, n = 3). In follow-up experiments, dose-response curves were made in the range 100 µM–10 pM (triplicate measurements/assay, n = 3). […] The reaction was terminated by the addition of 5 µL Lonza Stop Buffer supplemented with 10 µM pan-PDE4 inhibitor NPD-0001. Subsequently, 5 µL of Lonza Detection reagent (diluted to 80% with reaction buffer) was added, and the reaction was incubated for 10 min at 300 rpm. Luminescence was read with a Victor3 luminometer using a 0.1 s/well program. […] The Cheng-Prussoff equation, embedded in the GraphPad Prism software, was used to convert IC50 values to pKi values.

[2] = test system: S. mansoni; assay: In vitro anti-S. mansoni assay: oviposition (egg count); assay type: cell-based, Schistosoma mansoni; conditions: eggs of days 4 and 5
Description: (§3) For these experiments, roflumilast and NPD-0001 were freshly prepared in different concentrations (100 µM, 50 µM, 25 µM 10 µM and 5 µM) in RPMI-1640 medium and tested in 12-well tissue culture plates for S. mansoni survival and ovipositing capacity. To assess the effects of roflumilast and NPD-0001 on egg production in vitro, we used 12-well tissue culture plates containing 6–8 worms, including at least 1 or 2 worm couples and fresh RPMI-1640 medium containing the indicated concentration of the test compound. Worms were incubated overnight in a CO2 incubator at 37 °C. On the 2nd day, worms were washed 3 times with normal saline, fresh medium was added, and the incubation was continued. Each concentration was tested in duplicate wells, and on the 4th day, eggs were counted and discarded, and the medium was changed. On day 5 (the end of the observation period), newly deposited eggs were counted. The final egg number is the total count of days 4 and 5 for each concentration tested. Statistical analysis was done with Student’s unpaired, 2-tailed t-test.

[3] = test system: S. mansoni; assay: In vitro anti-S. mansoni assay: adult worm killing; assay type: cell-based, Schistosoma mansoni; conditions: for %Worm Killing (Female) / %Worm Killing (Male): day 5
Description: Infected Syrian golden hamsters (Mesocrietus auratus) bred and maintained at the Schistosome Biology Supply Center (SBSC) of Theodor Bilharz Research Institute (TBRI), Giza, Egypt, were used. Animals were housed under controlled biological conditions. Animal experiments were conducted in accordance with the Guide for Care and Use of Laboratory Animals and were approved by the Institutional Review Board (IRB) of TBRI. Seven weeks post-infection, hamsters were anesthetized using pentobarbital in a dose of 200 mg/kg body weight and 2 hamsters were sacrificed to obtain the required number of worms. The animals were then perfused using a normal saline solution (0.9% NaCl), and worms were collected. Six to 8 worms per well were placed in a 12-well tissue culture plate, taking care to guarantee 1 to 2 worm pairs/well and fresh RPMI-1640 medium (plus glutamine, 20% newborn calf serum and antibiotics [streptomycin, penicillin and gentamicin]), containing the indicated concentration of the test compound, was added. Worms were incubated overnight in a CO2 incubator at 37 °C. On the 2nd day, worms were examined by microscopy, washed 3 times with normal saline, a fresh medium was added, and the incubation was continued. On the 3rd day, worm motility was observed, and on the 4th day, the medium was again changed. On day 5 (end of the observation period), worms were microscopically examined for their motility and appearance. Each concentration was tested in duplicate wells, and the final recording of percent worm mortality was determined as the number of dead worms [contracted and opaque] divided by the total number of worms ×100).
as §3

[4] = molecular target: SmPDE4A_FL (Schistosoma mansoni, UniProt A0ACM8RGL1); assay: biochemical; conditions: read-out: SmPDE4A_FL inhibition at 10 µM
Description: as §1, §2

[5] = Cytotoxicity on MRC-5 cells; assay type: cell-based; conditions: human, MRC-5SV40 lung fibroblasts, read-out: MRC-5 pIC50 (converted)
Text: Table 4 Effect of SmPDE4A inhibitors on S. mansoni survival and oviposition. | column: MRC-5 pIC50

[6] = molecular target: SmPDE4A; parameters: method as in PMID 28704396; conditions: estimated value; cited from earlier work
[7] = test system: S. mansoni; parameters: method as in PMID 31711973; conditions: data from Botros et al. and this study, cited from earlier work
[8] = test system: S. mansoni; parameters: method as in PMID 31711973; conditions: data from Botros et al. and this study, cited from earlier work; remark: listed apart in the source
[9] = SmPDE4A_CD pKi, mean ± SEM, n ≥ 3, cAMP at 2 × Km (6 µM), Cheng-Prusoff
[10] = read-out: SmPDE4A_CD pKi (converted)

inhibition at 10 µM ([1]; 10 µM compound): 4%
SMILES: O=C(Nc1cccc(Cl)c1)c1ccc(OC(F)F)c(OCC2CC2)c1 [NPD-3075]

SMILES: O=C(C1CCCCC1)N1CC(=O)N2CCc3ccccc3C2C1 (stereo not drawn) [praziquantel]
% Oviposition Reduction ([2]; 5 µM): 100% | worm killing ([3]; 5 µM (lowest concentration tested), sex not specified): 100%

SMILES: COc1ccc(C2=NN(C3CCCCCC3)C(=O)[C@H]3CC=CC[C@@H]23)cc1OCCCCOc1ccc(-c2nnn[nH]2)cc1 [NPD-0001]
inhibition at 10 µM [4]: > 50% | IC50 [1]: 1580 nM | Ki [1, 9]: 126 nM | inhibition at 10 µM [1]: > 50% | IC50 [5]: 7940 nM | % Oviposition Reduction ([2]; 5 µM): 0% | % Oviposition Reduction ([2]; 10 µM): 0% | % Oviposition Reduction ([2]; 25 µM): 13% | % Oviposition Reduction ([2]; 50 µM): 23% | % Oviposition Reduction ([2]; 100 µM): 100 * % | %Worm Killing (Female) ([3]; 5 µM): 0% | %Worm Killing (Male) ([3]; 5 µM): 0% | %Worm Killing (Female) ([3]; 10 µM): 0% | %Worm Killing (Male) ([3]; 10 µM): 0% | %Worm Killing (Female) ([3]; 25 µM): 0% | %Worm Killing (Male) ([3]; 25 µM): 0% | %Worm Killing (Female) ([3]; 50 µM): 0% | %Worm Killing (Male) ([3]; 50 µM): 0% | %Worm Killing (Male) ([3]; 100 µM): 63%

Ki [1, 10]: 2000 nM | reduction in SmPDE4A inhibitory potency (fold) ([1]; relative to NPD-1204): 10 fold
SMILES: O=C(Nc1ccccc1Cl)c1ccc(OC(F)F)c(OCC2CC2)c1 [NPD-3080]

inhibition at 10 µM ([1]; 10 µM compound): 15%
SMILES: COc1ccc(NC(=O)c2ccc(OC(F)F)c(OCC3CC3)c2)cc1Cl [NPD-3000]

SMILES: O=C(Nc1c(Cl)c[n+]([O-])cc1Cl)c1ccc(OC(F)F)c(OCC2CC2)c1 [NPD-2980, roflumilast N-oxide]
Ki [1, 9]: 63.1 nM

inhibition at 10 µM ([1]; 10 µM compound): 46%
SMILES: O=C(Nc1ccncc1)c1ccc(OC(F)F)c(OCC2CC2)c1 [NPD-3076]

inhibition at 10 µM ([1]; 10 µM compound): 16%
SMILES: COc1ccc(C(=O)Nc2c(Cl)cncc2Cl)cc1 [NPD-0548]

Ki [1, 10]: 794 nM
SMILES: O=C(Nc1c(Cl)cncc1Cl)c1ccc(Cl)c(OCC2CC2)c1 [NPD-3096]

Ki [1, 10]: 398 nM
SMILES: COc1ccc(C(=O)Nc2c(Cl)cncc2Cl)cc1OCC1CC1 [NPD-3094]

Ki [1, 10]: 251 nM
SMILES: O=C(Nc1ccncc1Cl)c1ccc(OC(F)F)c(OCC2CC2)c1 [NPD-1204]

Ki [1, 10]: 2510 nM
SMILES: O=C(Nc1c(Cl)cncc1Cl)c1ccc(F)c(OCC2CC2)c1 [NPD-3093]

Ki [1, 10]: 3980 nM
SMILES: COc1ccc(C(=O)Nc2c(Cl)cncc2Cl)cc1OC [NPD-0446]

SMILES: O=C(Nc1c(Cl)cncc1Cl)c1ccc(OC(F)F)c(OCC2CC2)c1 [roflumilast]
inhibition at 10 µM [4]: > 50% | IC50 [1]: 631 nM | Ki [1, 9]: 79.4 nM | inhibition at 10 µM [1]: > 50% | SmPDE4A pKi (estimated) [6]: 7.8 | % Oviposition Reduction ([7]; 5 µM): 35 * % | % Oviposition Reduction ([7]; 10 µM): 39 * % | % Oviposition Reduction ([7]; 25 µM): 42 * % | % Oviposition Reduction ([7]; 50 µM): 49 * % | % Oviposition Reduction ([7]; 100 µM): 52 * % | IC50 [5]: > 63100 nM | %Worm Killing (Female) ([8]; 5 µM): 0% | %Worm Killing (Male) ([8]; 5 µM): 0% | %Worm Killing (Female) ([8]; 10 µM): 0% | %Worm Killing (Male) ([8]; 10 µM): 0% | %Worm Killing (Female) ([8]; 25 µM): 0% | %Worm Killing (Male) ([8]; 25 µM): 0% | %Worm Killing (Female) ([8]; 50 µM): 0% | %Worm Killing (Male) ([8]; 50 µM): 0% | %Worm Killing (Female) ([8]; 100 µM): 0% | %Worm Killing (Male) ([8]; 100 µM): 0%

inhibition at 10 µM ([4]; 10 µM compound, toolbox screen): > 50% | inhibition at 10 µM ([1]; 10 µM compound): > 50% | Ki [1, 10]: 501 nM | IC50 ([1]; representative dose-response curves, Figure 4B, read-out: pIC50 inhibition of enzymatic activity of SmPDE4A_CD (converted)): 3980 nM
SMILES: COc1ccc(C2=NN(C3CCN(C(=O)CN4C(=O)CCC4=O)CC3)C(=O)C3CC=CCC23)cc1OC (stereo not drawn) [NPD-0007]

inhibition at 10 µM ([1]; 10 µM compound): 8%
SMILES: COc1ccc(C(=O)Nc2c(Cl)cncc2Cl)cc1OCc1ccccc1 [NPD-0546]

inhibition at 10 µM ([1]; 10 µM compound): 21% | reduction in SmPDE4A inhibitory potency (fold) ([1]; relative to roflumilast): three-fold reduction in potency
SMILES: O=C(Nc1cnccc1Cl)c1ccc(OC(F)F)c(OCC2CC2)c1 [NPD-1205]

inhibition at 10 µM ([1]; 10 µM compound): 9%
SMILES: COc1ccc(C(=O)Nc2c(Cl)cncc2Cl)cc1Cl [NPD-1180]

SMILES: COc1ccc(C(=O)Nc2c(Cl)cncc2Cl)cc1OC1CCCC1 [piclamilast]
inhibition at 10 µM [4]: > 50% | IC50 [1]: 3160 nM | Ki [1, 9]: 316 nM and 63.1 nM | inhibition at 10 µM [1]: > 50%

From paper PMC10095301, “To Target or Not to Target Schistosoma mansoni Cyclic Nucleotide Phosphodiesterase 4A?” (International Journal of Molecular Sciences, 2023)
